This passage reports CC50 and EC50 results from ChEMBL document CHEMBL1156829 (Proc Natl Acad Sci U S A, 2008).

Each structure is given as a SMILES string.

Series [1] is described as follows: NOVARTIS: Cytotoxicity against human hepatocellular carcinoma cell line (Huh7). It counts as toxicity, cell-based, Huh-7. The following applies: Huh7 cells (hepatocellular carcinoma cell line).
In series [2] the test system is Plasmodium falciparum. Nature of the series: NOVARTIS: Inhibition of Plasmodium falciparum W2 (drug-resistant) proliferation in erythrocyte-based infection assay. It counts as functional, organism-based. The following applies: Plasmodium falciparum, W2; read-out: EC50.
Series [3] has as its system Plasmodium falciparum. Nature of the series: NOVARTIS: Inhibition of Plasmodium falciparum 3D7 (drug-susceptible) proliferation in erythrocyte-based infection assay. The class given is functional, organism-based. The following applies: Plasmodium falciparum, 3D7.

One may read the CC50 as the concentration giving 50% cytotoxicity. Read a low CC50 as greater toxicity to the cells. One may read the EC50 as the concentration that produces a half-maximal response. Regarding `Nc1nc(N)c2nc(CCc3ccc(C(=O)N[C@H](CCC(=O)O)C(=O)O)cc3)cnc2n1`, half-maximal cytotoxicity in series [1] (CC50) was put at 8.1 nM. Also, the EC50 is 1.78 nM in the series on Plasmodium falciparum [2] and 29.5 nM with Plasmodium falciparum [3].

For `COc1ccc(NC(=O)c2c(Cl)nc(Cl)c([N+](=O)[O-])c2C)cc1`, the CC50 in series [1] was more than 10000 nM. Besides, the figures for the EC50 in the series on Plasmodium falciparum [2] and with Plasmodium falciparum [3] were 2060 nM and more than 1250 nM, respectively.

With `Cc1ccc(-c2nn(CC(=O)Nc3ccc(OC(F)(F)F)cc3)c(=O)c3ccccc23)cc1S(=O)(=O)N1CCCCC1`, the CC50 in series [1] was more than 10000 nM. Moreover, the EC50 with Plasmodium falciparum [2] was 1920 nM; with Plasmodium falciparum [3], more than 1250 nM.

As to `CCCN1CCC(N2C[C@@H](NCc3ccc(OCc4ccccc4)cc3)C[C@H]2C(=O)NCCc2ccc3c(c2)OCO3)CC1`, in series [1], the CC50 came to 3560 nM. Besides, the EC50 with Plasmodium falciparum [2] worked out at 701 nM; with Plasmodium falciparum [3], 1070 nM.

Take `CC(=O)Nc1ccc(C(C)=NNc2nc(Nc3cc(C)ccc3C)nc(N3CCOCC3)n2)cc1`: the CC50 in series [1] was more than 10000 nM. The EC50 is 2060 nM in the series with Plasmodium falciparum [2] and more than 1250 nM in the series on Plasmodium falciparum [3].

`O=C1Cc2ccccc2C(=C2CCNCC2)c2ccsc21` showed a CC50 in series [1] of more than 10000 nM. Also, the results for the EC50 with Plasmodium falciparum [2] and in the series on Plasmodium falciparum [3] were 2040 nM and 532 nM, respectively.

In turn, `CCCCSc1oc(C)nc1[P+](c1ccccc1)(c1ccccc1)c1ccccc1` registered a CC50 in series [1] of 2640 nM. Also, the concentration for a half-maximal effect (EC50) in the series on Plasmodium falciparum [2] came out at 583 nM; with Plasmodium falciparum [3], 203 nM.

`Cc1cccc(C)c1NC(=O)C(O)c1ccc(Cl)cc1Cl` (configuration not stated) showed a CC50 in series [1] of more than 10000 nM. Also, the figures for the EC50 in the series with Plasmodium falciparum [2] and in the series on Plasmodium falciparum [3] were 2200 nM and more than 1250 nM, respectively.

Compound `O=C(NCCN1CCCCC1)c1ccc(OC2CCN(CC3CCCCC3)CC2)c(Cl)c1` gave a CC50 in series [1] of 5370 nM. Moreover, the EC50 was 1170 nM with Plasmodium falciparum [2] and 344 nM in the series on Plasmodium falciparum [3].

Compound `N#Cc1ccccc1CN1CCC(Oc2cccc3onc(N)c23)CC1` had a CC50 in series [1] of 891 nM. The EC50 is 189 nM in the series with Plasmodium falciparum [2] and more than 1660 nM in the series on Plasmodium falciparum [3].

In series [1], `CN1C=C(c2ccc3ccccc3n2)C(C[N+](=O)[O-])c2ccccc21` (configuration not stated) gave a CC50 of more than 10000 nM. Further, the EC50 in the series with Plasmodium falciparum [2] worked out at 2110 nM; with Plasmodium falciparum [3], 791 nM.

For the compound `Nc1ccc2[nH]c(/C=C/c3ccc(Cl)cc3)nc2c1`, the CC50 in series [1] was more than 10000 nM. Besides, the EC50 in the series with Plasmodium falciparum [2] was 2080 nM; with Plasmodium falciparum [3], more than 1250 nM.

Compound `Cc1sc2nc(CN(C(=O)CCc3ccccc3)C3CCCCC3)[nH]c(=O)c2c1C` returned a CC50 in series [1] of 1940 nM. Also, the EC50 with Plasmodium falciparum [2] is 424 nM; in the series on Plasmodium falciparum [3], more than 1250 nM.

In series [1], `CC(C)NC(=O)N1CCN(C(=O)COC(c2cccs2)c2cccnc2Cl)CC1` (configuration not stated) had a CC50 of more than 10000 nM. The EC50 is 2020 nM with Plasmodium falciparum [2] and more than 1250 nM in the series with Plasmodium falciparum [3].

Take `CC[C@@H]1CCC[C@H](C)CC[C@@H](O[C@@H]2O[C@@H](C)[C@@H](O)[C@@H](N)[C@H]2O)[C@H](CC)CCCNC1=O`: the CC50 in series [1] is more than 6250 nM. For the same compound, the EC50 is more than 1250 nM in the series on Plasmodium falciparum [2] and 1580 nM in the series on Plasmodium falciparum [3].

The compound `NC(=NCc1ccccc1)NC(=O)c1nc(Cl)c(N)nc1N` had a CC50 in series [1] of more than 6250 nM. Moreover, the EC50 in the series on Plasmodium falciparum [2] is more than 1250 nM; with Plasmodium falciparum [3] it was 1160 nM.

Compound `O=C(Nc1cc(C(F)(F)F)cc(C(F)(F)F)c1)Nc1ccc2nnsc2c1` yielded a CC50 in series [1] of 19400 nM. Also, the concentration giving a half-maximal response (EC50) in the series with Plasmodium falciparum [2] worked out at 4360 nM; in the series on Plasmodium falciparum [3] it was 6370 nM.

The compound `O=C(Nc1ccncc1)Nc1cccc(NC(=O)Nc2ccncc2)c1` had a CC50 in series [1] of more than 10000 nM. For the same compound, the EC50 with Plasmodium falciparum [2] is 2230 nM; in the series with Plasmodium falciparum [3] it was more than 1250 nM.

Take `CC1=C(C(=O)OC(C)C)C(c2ccccc2F)C2=C(CC(C)(C)CC2=O)N1` (configuration not stated): in series [1], the CC50 is more than 10000 nM. Also, the EC50 in the series on Plasmodium falciparum [2] was 1910 nM; in the series with Plasmodium falciparum [3], more than 1250 nM.

Regarding `COC(=O)c1c(S(=O)(=O)NCCc2ccccc2)sc2c1CCN(Cc1cccnc1)C2`, the CC50 in series [1] was more than 10000 nM. For the same compound, the EC50 turned out to be 1910 nM in the series on Plasmodium falciparum [2] and 1580 nM with Plasmodium falciparum [3].

Consider `c1ccc2[nH]c(CN(Cc3nc4ccccc4[nH]3)Cc3nc4ccccc4[nH]3)nc2c1`, for which the CC50 in series [1] was found to be 26700 nM. Moreover, the EC50 with Plasmodium falciparum [2] was found to be 5260 nM; in the series on Plasmodium falciparum [3] it was 191 nM.

`Cc1cc(N(C)C)cc(C)[n+]1OC(=O)N(c1ccccc1)c1ccccc1` had a CC50 in series [1] of more than 10000 nM. In addition, the EC50 is 2000 nM in the series on Plasmodium falciparum [2] and more than 1490 nM in the series with Plasmodium falciparum [3].

As to `O=C(NCCc1ccccc1)c1cnc(NCCCn2ccnc2)nc1NC1CCCC1`, the CC50 in series [1] was more than 8690 nM. Besides, the EC50 came to 1720 nM in the series with Plasmodium falciparum [2] and 678 nM in the series on Plasmodium falciparum [3].

On to `CCc1ccc(CSc2nc3cc(OC)c(OC)cc3c(=N)n2CCc2ccccc2)cc1`, for which half-maximal cytotoxicity in series [1] (CC50) was put at 38900 nM. The EC50 in the series on Plasmodium falciparum [2] stood at 7620 nM; in the series with Plasmodium falciparum [3], 6640 nM.

`Cn1c(SCC2CCCO2)nnc1C1CCN(C/C=C/c2ccccc2)CC1` (configuration not stated) returned a CC50 in series [1] of more than 3890 nM. Moreover, the EC50 was more than 758 nM in the series on Plasmodium falciparum [2] and more than 1280 nM with Plasmodium falciparum [3].

With `Clc1ccc(Nc2nc3nonc3nc2Nc2ccc(Cl)c(Cl)c2)cc1Cl`, the CC50 in series [1] came to 48700 nM. For the same compound, the values for the EC50 with Plasmodium falciparum [2] and in the series with Plasmodium falciparum [3] were 9280 nM and more than 12500 nM, respectively.

For the compound `O=C(NC(Cc1ccccc1)c1nnc(SCc2ccc(F)cc2)n1-c1ccc(Cl)cc1Cl)C1CCCCC1` (configuration not stated), the CC50 in series [1] turned out to be 1660 nM. Moreover, the results for the EC50 with Plasmodium falciparum [2] and with Plasmodium falciparum [3] were 350 nM and 748 nM, respectively.

Compound `O=C(O)c1ccc(S(=O)(=O)c2ccc3c(c2)C(=O)N(c2ccc(Sc4ccc([N+](=O)[O-])cc4)cc2)C3=O)cc1` gave a CC50 in series [1] of more than 10000 nM. Further, the EC50 in the series with Plasmodium falciparum [2] is 2070 nM; in the series on Plasmodium falciparum [3], more than 1250 nM.

As to `C[C@H]1C[C@H](C)C(=O)[C@@H]([C@@H](O)CC2CC(=O)NC(=O)C2)C1`, the CC50 in series [1] is 304 nM. Besides, the figures for the EC50 in the series on Plasmodium falciparum [2] and in the series on Plasmodium falciparum [3] were 67.5 nM and 21.6 nM, respectively.

In series [1], `COc1ccc(C(=O)N2C(C(=O)Nc3ccccc3F)CSC2c2ccc(C(C)(C)C)cc2)cc1` (configuration not stated) gave a CC50 of more than 3600 nM. In addition, the EC50 came out at 801 nM in the series with Plasmodium falciparum [2] and 940 nM with Plasmodium falciparum [3].

For `O=C(Nc1ccc(-c2nc3ccc(NC(=O)c4cccc5ccccc45)cc3[nH]2)cc1)c1cccc2ccccc12`, the CC50 in series [1] is more than 10000 nM. Moreover, the EC50 came to 1920 nM with Plasmodium falciparum [2] and 1430 nM in the series on Plasmodium falciparum [3].

`COc1ccc(C)cc1Nc1nc(N)c2cc(OC)c(OC)cc2n1` registered a CC50 in series [1] of more than 10000 nM. The concentration for a half-maximal effect (EC50) is 2040 nM with Plasmodium falciparum [2] and 973 nM in the series with Plasmodium falciparum [3].

Regarding `Cc1sc2nc(C3CC3)n(C3CCN(C(=O)c4ccccn4)CC3)c(=O)c2c1C`, in series [1], the CC50 is more than 10000 nM. The values for the EC50 in the series on Plasmodium falciparum [2] and in the series on Plasmodium falciparum [3] were 2020 nM and more than 1250 nM, respectively.

On to `O=C1NC(=S)N/C1=C\C=C\c1ccc([N+](=O)[O-])o1`, for which the CC50 in series [1] is more than 10000 nM. Besides, the EC50 in the series on Plasmodium falciparum [2] was 2200 nM; with Plasmodium falciparum [3], more than 881 nM.

On to `CCN(CC)CCCC(C)Nc1cc(/C=C/c2ccc([N+](=O)[O-])cc2)nc2ccc(OC)cc12` (configuration not stated), for which the CC50 in series [1] was more than 6250 nM. In addition, the EC50 with Plasmodium falciparum [2] turned out to be 1300 nM; with Plasmodium falciparum [3] it was 743 nM.

Turning to `N=C1NC(=O)C(=CC=Cc2ccc([N+](=O)[O-])o2)S1`, in series [1], the CC50 was 7210 nM. Also, the EC50 with Plasmodium falciparum [2] is 1460 nM; with Plasmodium falciparum [3], 707 nM.

For `COc1ccccc1CN1CCc2nc(-c3cnccn3)sc2C1`, it took 23000 nM to reach half-maximal cytotoxicity in series [1] (CC50). The figures for the EC50 in the series on Plasmodium falciparum [2] and in the series with Plasmodium falciparum [3] were 4440 nM and 9230 nM, respectively.

In turn, `COc1ccc(OC)c(-c2csc(N(CCCN(C)C)C(=O)Cc3ccccc3)n2)c1` had a CC50 in series [1] of 17700 nM. Moreover, the EC50 in the series with Plasmodium falciparum [2] stood at 3430 nM; with Plasmodium falciparum [3] it was 4050 nM.

Regarding `Cc1cc(NC(=O)c2ccc(Br)cc2)no1`, the CC50 in series [1] is more than 10000 nM. In addition, the EC50 with Plasmodium falciparum [2] was 1910 nM; in the series with Plasmodium falciparum [3], more than 1250 nM.
